In assay [1] the target is T1, VEGF receptor tyrosine kinase-2 (Homo sapiens, UniProt P35968).
T1 construct: GST; made in house; host or cells: baculovirus-infected insect cells (Sf9)
Kind of assay: VEGF Receptor-2 Kinase Assay. The format is biochemical. The note with it: 33P-ATP, 10 minutes at 22° C. How it is done: VEGF Receptor-2 Kinase Assay
Recombinant VEGF receptor tyrosine kinase-2 was purified as a GST fusion protein from baculovirus-infected insect cells (Sf9). Poly-(Glu4Tyr), which was used as a kinase substrate, was purchased by the Sigma Company.
VEGF receptor tyrosine kinase (90 ng/measuring point) was incubated for 10 minutes at 22° C. in the presence of various concentrations of test substances (0 μm, as well as within the range of 0.001-30 μm) in 30 μl of assay buffer [40 mmol of Tris/HCl, […], 10 mmol of MgCl2, 1 mmol of MnCl2, 3 μmol of Na ortho-vanadate, 1.0 mmol of dithiothreitol, 8 μmol of adenosine trisphosphate (ATP), 27 μg/measuring point of poly-(Glu4Tyr), 0.2 μCi/measuring point of 33P-gamma ATP, 1% dimethyl sulfoxide]. The reaction was stopped by adding EDTA solution (250 mmol, pH 7.0, 10 μl/measuring point).
(§1) From each reaction batch, 10 μl was applied to P30 filter strips (Wallac Company), and non-incorporated 33P-ATP was removed by subjecting the filter strips to three washing cycles for 10 minutes each in 0.5% phosphoric acid. After the filter strips were dried for one hour at 70° C., the filter strips were covered with scintillator strips (MeltiLex™ A, Wallac Company) and baked for one hour at 90° C. The amount of incorporated 33P (substrate phosphorylation) was determined by scintillation measurement in a gamma-radiation measuring device (Wallac).

The target in a further assay is T2, CDK2/CycE (Homo sapiens, UniProt P24941).
T2 construct: GST; purchased ProQinase GmbH, Freiburg; host or cells: baculovirus-infected insect cells (Sf9)
Kind of assay: CDK2/CycE Kinase Assay. The format is biochemical. The note with it: histone IIIS substrate, 33P-ATP, 15 minutes at 22° C. How it is done: Recombinant CDK2- and CycE-GST-fusion proteins, purified from baculovirus-infected insect cells (Sf9), were purchased by ProQinase GmbH, Freiburg. Histone IIIs, which was used as a kinase substrate, was purchased by the Sigma Company.
CDK2/CycE (50 ng/measuring point) was incubated for 15 minutes at 22° C. in the presence of various concentrations of test substances (0 μm, as well as within the range of 0.01-100 μm) in assay buffer [50 mmol of tris/HCl, pH 8.0, 10 mmol of MgCl2, 0.1 mmol of Na ortho-vanadate, 1.0 mmol of dithiothreitol, 0.5 μm of adenosine triphosphate (ATP), 10 μg/measuring point of histone IIIS, 0.2 μCi/measuring point of ^33P-gamma ATP, 0.05% NP40, 12.5% dimethyl sulfoxide]. The reaction was stopped by adding EDTA solution (250 mmol, pH 8.0, 14 μl/measuring point).
From each reaction batch, 10 μl was applied to P30 filter strips (Wallac Company), and non-incorporated ^33P-ATP was removed by subjecting the filter strips to three washing cycles for 10 minutes each in 0.5% phosphoric acid. After the filter strips were dried for one hour at 70° C., the filter strips were covered with scintillator strips (MeltiLex™ A, Wallac Company) and baked for one hour at 90° C. The amount of incorporated ^33P (substrate phosphorylation) was determined by scintillation measurement in a gamma-radiation measuring device (Wallac).

Assay [2] has as its system MCF7, hormone-independent human breast cancer cells. Kind of assay: Proliferation assay, MCF7. The settings on record: MCF7, 96 h, 4 days incubation, crystal violet. It counts as cell-based. The source says: (§2) Cultivated human tumor cells (MCF7, hormone-independent human breast cancer cells, related to ATCC HTB22; NCI-H460, human non-small-cell lung cancer cells, ATCC HTB-177, HCT 116, human colon cancer cells, ATCC CCL-247; DU 145, hormone-independent human prostate cancer cells, ATCC HTB-81; MaTu-MDR, hormone-independent, multiple pharmaceutical agent-resistant human breast cancer cells, EPO-GmbH, Berlin) were flattened out at a density of about 5000 cells/measuring point, depending on the growth rate of the respective cells, in a 96-well multititer plate in 200 μl of the corresponding growth medium. After 24 hours, the cells of one plate (zero-point plate) were colored with crystal violet (see below), while the medium of the other plates was replaced by fresh culture medium (200 μl), to which the test substances were added in various concentrations (0 μm, as well as in the range of 0.01-30 μm; the final concentration of the solvent dimethyl sulfoxide was 0.5%). The cells were incubated for 4 days in the presence of test substances. The cell proliferation was determined by coloring the cells with crystal violet: the cells were fixed by adding 20 μl/measuring point of an 11% glutaric aldehyde solution for 15 minutes at room temperature. After three washing cycles of the fixed cells with water, the plates were dried at room temperature. The cells were colored by adding 100 μl/measuring point of a 0.1% crystal violet solution (the pH was set at 3 by adding acetic acid). After three washing cycles of the colored cells with water, the plates were dried at room temperature. The dye was dissolved by adding 100 μl/measuring point of a 10% acetic acid solution. The extinction was determined by photometry at a wavelength of 595 nm. The change of cell growth, in percent, was calculated by normalization of the measured values to the extinction values of the zero-point plate (=0%) and the extinction of the untreated (0 μm) cells (=100%).

Another assay addresses T3, CDK1/CycB (Homo sapiens, UniProt P06493).
T3 construct: GST; purchased ProQinase GmbH, Freiburg; host or cells: baculovirus-infected insect cells (Sf9)
As to the kind of experiment: CDK1/CycB Kinase Assay. The format is biochemical. The settings on record: histone IIIS substrate, 33P-ATP, 15 minutes at 22° C. The method, then:
Recombinant CDK1- and CycB-GST-fusion proteins, purified from baculovirus-infected insect cells (Sf9), were purchased from ProQinase GmbH, Freiburg. Histone IIIS, used as a kinase substrate, is available commercially from the Sigma Company.
The reaction was stopped by adding EDTA solution (250 mmol, pH 8.0, 14 μl/measuring point).
as §1

In assay [3] the test system is NCI-H460, human non-small-cell lung cancer cells. Kind of assay: Proliferation assay, H460. The format is cell-based. The note with it: NCI-H460, 96 h, 4 days incubation, crystal violet.
Source text: as §2

Assay [4] relates to DU 145, hormone-independent human prostate cancer cells. Kind of assay: Proliferation assay, DU145. The note with it: DU-145, 96 h, 4 days incubation, crystal violet. The format is cell-based.
Source text: as §2

Another assay relates to MaTu-ADR. As to the kind of experiment: Proliferation assay, MaTu-ADR. The format is cell-based. The note with it: Homo sapiens, 96 h, MaTu-ADR cells, 4 days incubation, crystal violet.
Source text: as §2

Setting [5] is: poly-(Glu4Tyr) substrate, read-out: VEGF-R2 IC50.

Where two headings read alike, the source gives them in different places.

In general, IC50 refers to the concentration that gives 50% inhibition.

T3 sequence (P06493 whole entry): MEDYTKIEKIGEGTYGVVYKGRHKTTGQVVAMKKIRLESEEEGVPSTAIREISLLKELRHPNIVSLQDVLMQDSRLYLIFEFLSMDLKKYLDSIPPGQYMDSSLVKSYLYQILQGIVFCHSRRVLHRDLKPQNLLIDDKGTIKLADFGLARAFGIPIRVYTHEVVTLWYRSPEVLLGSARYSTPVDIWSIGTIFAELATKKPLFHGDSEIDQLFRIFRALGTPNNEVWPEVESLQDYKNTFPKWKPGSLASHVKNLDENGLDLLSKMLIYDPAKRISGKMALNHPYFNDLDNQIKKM
T3 sequence (P14635 whole entry partner): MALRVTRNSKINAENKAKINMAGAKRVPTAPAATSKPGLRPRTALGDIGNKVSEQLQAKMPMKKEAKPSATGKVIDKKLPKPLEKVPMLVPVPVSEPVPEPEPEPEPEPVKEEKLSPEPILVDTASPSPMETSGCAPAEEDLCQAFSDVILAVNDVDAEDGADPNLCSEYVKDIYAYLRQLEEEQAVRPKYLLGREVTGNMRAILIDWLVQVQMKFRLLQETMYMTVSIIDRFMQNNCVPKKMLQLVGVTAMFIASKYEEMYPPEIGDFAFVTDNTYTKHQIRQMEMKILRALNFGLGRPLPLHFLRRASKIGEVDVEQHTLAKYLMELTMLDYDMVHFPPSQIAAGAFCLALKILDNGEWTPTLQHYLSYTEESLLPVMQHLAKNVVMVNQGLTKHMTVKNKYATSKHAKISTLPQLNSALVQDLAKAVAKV
T1 sequence (P35968 20-1356): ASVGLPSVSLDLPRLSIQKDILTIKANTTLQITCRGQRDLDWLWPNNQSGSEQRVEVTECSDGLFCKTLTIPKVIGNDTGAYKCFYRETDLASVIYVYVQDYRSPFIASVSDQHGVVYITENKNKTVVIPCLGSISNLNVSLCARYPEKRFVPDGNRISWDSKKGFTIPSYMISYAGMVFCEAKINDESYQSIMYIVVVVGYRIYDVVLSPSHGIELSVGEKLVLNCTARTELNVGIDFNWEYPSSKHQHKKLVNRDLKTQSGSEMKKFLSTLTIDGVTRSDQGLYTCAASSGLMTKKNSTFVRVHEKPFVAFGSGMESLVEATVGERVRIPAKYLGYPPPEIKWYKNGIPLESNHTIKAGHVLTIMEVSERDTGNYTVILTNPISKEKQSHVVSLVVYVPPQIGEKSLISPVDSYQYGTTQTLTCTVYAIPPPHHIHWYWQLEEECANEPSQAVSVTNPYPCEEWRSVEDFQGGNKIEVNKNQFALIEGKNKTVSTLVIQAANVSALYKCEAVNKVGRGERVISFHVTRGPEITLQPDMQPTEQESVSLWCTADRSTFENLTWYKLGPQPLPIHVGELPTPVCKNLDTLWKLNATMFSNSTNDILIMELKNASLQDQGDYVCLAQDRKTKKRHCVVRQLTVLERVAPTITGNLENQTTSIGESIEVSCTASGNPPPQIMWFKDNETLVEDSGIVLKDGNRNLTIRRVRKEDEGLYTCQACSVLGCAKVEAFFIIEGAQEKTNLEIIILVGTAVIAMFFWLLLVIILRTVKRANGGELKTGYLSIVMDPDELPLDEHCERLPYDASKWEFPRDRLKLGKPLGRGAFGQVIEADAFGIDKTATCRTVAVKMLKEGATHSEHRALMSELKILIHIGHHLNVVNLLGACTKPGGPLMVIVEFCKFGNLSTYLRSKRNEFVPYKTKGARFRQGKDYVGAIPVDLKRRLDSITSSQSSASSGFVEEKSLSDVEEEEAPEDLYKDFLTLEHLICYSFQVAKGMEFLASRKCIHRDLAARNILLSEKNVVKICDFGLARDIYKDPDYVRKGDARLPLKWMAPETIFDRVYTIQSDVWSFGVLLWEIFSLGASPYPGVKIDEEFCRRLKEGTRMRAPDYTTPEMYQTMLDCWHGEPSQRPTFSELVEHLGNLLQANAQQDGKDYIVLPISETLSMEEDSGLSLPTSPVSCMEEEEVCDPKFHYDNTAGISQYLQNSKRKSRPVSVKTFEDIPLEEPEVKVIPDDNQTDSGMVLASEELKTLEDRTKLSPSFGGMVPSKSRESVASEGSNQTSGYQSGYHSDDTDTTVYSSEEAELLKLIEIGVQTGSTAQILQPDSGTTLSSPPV

Turning to `CCOC(=O)N=S(C)(=O)c1ccc(Nc2ncc(Br)c(N[C@H](COC)[C@@H](C)O)n2)cc1` (mixture of isomers) [Example 1.34, (RS)-S-{4-[(5-bromo-4-{[(1R,2R)-2-hydroxy-1-(methoxymethyl)propyl]amino}pyrimidin-2-yl)amino]phenyl}-N-(ethoxycarbonyl)-S-methyl sulfoximide], the IC50 in assay [1] (setting [5]) was 0.53 µM; on CDK2/CycE, 0.028 µM; in assay [2], 0.8 µM.
`CCOc1nc(Nc2ccc(S(=N)(=O)CC)cc2)ncc1Br` (racemic) [Example 1.63, (RS)-S-{4-[(5-bromo-4-ethoxypyrimidin-2-yl)amino]phenyl}-S-ethyl sulfoximide]: the IC50 against CDK1/CycB was found to be 0.2 µM; in assay [1] (setting [5]), 0.089 µM; on CDK2/CycE, 0.063 µM; in assay [2], 0.9 µM.
For `CN=S(C)(=O)c1ccc(Nc2ncc(Br)c(N[C@H](C)[C@@H](C)O)n2)cc1` (mixture of isomers) [Example 1.29, (RS)-S-[4-({5-bromo-4-[(1R,2R)-(2-hydroxy-1-methylpropyl)amino]pyrimidin-2-yl}amino)phenyl]-N,S-dimethyl-sulfoximide], the IC50 on CDK1/CycB is 0.007 µM; against CDK2/CycE, 0.004 µM.
With `C[C@@H](Nc1nc(Nc2ccc(S(C)(=N)=O)cc2)ncc1Br)C(C)(C)O` (mixture of isomers) [Example 1.41, (RS)-S-[4-({5-bromo-4-[(R)-(2-hydroxy-1,2-dimethylpropyl)amino]pyrimidin-2-yl}amino)phenyl]-S-methyl sulfoximide], the half-inhibitory concentration (IC50) in assay [3] stood at 0.07 µM; in assay [2], 0.08 µM; in assay [4], 0.09 µM; in the assay on MaTu-ADR it was 0.07 µM.
As for `CCOC(=O)N=S(=O)(CC)c1ccc(Nc2ncc(Br)c(N[C@H](COC)[C@@H](C)O)n2)cc1` (mixture of isomers) [Example 1.33, (RS)-S-{4-[(5-bromo-4-{[(1R,2R)-2-hydroxy-1-(methoxymethyl)propyl]amino}pyrimidin-2-yl)amino]phenyl}-N-(ethoxycarbonyl)-S-ethyl sulfoximide], the half-maximal inhibitory concentration (IC50) was 0.2 µM at CDK1/CycB, 0.45 µM in assay [1] (setting [5]) and 1 µM in assay [2].
As to `COC[C@@H](Nc1nc(Nc2ccc(S(C)(=N)=O)cc2)ncc1Br)[C@@H](C)O` (mixture of isomers) [Example 1.46, (RS)-S-{4-[(5-bromo-4-{[(1R,2R)-2-hydroxy-1-(methoxymethyl)-propyl]amino}pyrimidin-2-yl)amino]phenyl}-S-methyl sulfoximide], the IC50 came to 0.011 µM against CDK1/CycB and 0.004 µM against CDK2/CycE.
With `CN=S(C)(=O)c1ccc(Nc2ncc(Br)c(N[C@H](C)[C@@H](C)O)n2)cc1` (mixture of isomers) [Example 1.30, (RS)-S-[4-({5-bromo-4-[(1R,2R)-(2-hydroxy-1-methylpropyl)amino]pyrimidin-2-yl}amino)phenyl]-N,S-dimethyl-sulfoximide], the IC50 came to 0.015 µM against CDK1/CycB and 0.006 µM against CDK2/CycE.
As to `C[C@H](CO)Nc1nc(Nc2ccc(S(=O)(CC3CC3)=NS(=O)(=O)CC[Si](C)(C)C)cc2)ncc1Br` (mixture of isomers) [Example 1.7, (RS)-S-[4-({5-bromo-4-[(R)-(2-hydroxy-1-methylethyl)amino]pyrimidin-2-yl}amino)phenyl]-S-(cyclopropylmethyl)-N-[2-(trimethylsilyl)ethylsulfonyl]sulfoximide], the IC50 at CDK1/CycB was greater than 1 µM; in assay [1] (VEGF-R2 IC50, poly-(Glu4Tyr) substrate), 0.24 µM; at CDK2/CycE it was greater than 1 µM; in assay [2], 1.1 µM.
In assay [4], `COc1cc(Nc2ncc(Br)c(N[C@H](C)[C@@H](C)O)n2)ccc1S(C)(=N)=O` (single isomer, unassigned) [Example 1.26] gave an IC50 of 0.07 µM.
Consider `CC(C)(O)CSc1nc(Nc2ccc(S(C)(=N)=O)cc2)ncc1Br` (racemic) [Example 3.9, (RS)-S-[4-({5-bromo-4-[(2-hydroxy-2-methyl-propyl)sulfanyl]pyrimidin-2-yl}amino)phenyl]-S-methyl sulfoximide], for which the IC50 against CDK1/CycB came out at 0.055 µM; on CDK2/CycE it was 0.008 µM; in assay [2], 1 µM.
In the case of `C[C@H](CO)Nc1nc(Nc2ccc(S(C)(=O)=NS(=O)(=O)CC[Si](C)(C)C)cc2)ncc1Br` (mixture of isomers) [Example 2.1, (RS)-S-[4-({5-bromo-4-[(R)-(2-hydroxy-1-methylethyl)amino]pyrimidin-2-yl}amino)phenyl]-S-methyl-N-[2-(trimethylsilyl)ethylsulfonyl]sulfoximide], the IC50 in assay [1] (setting [5]) is 0.074 µM; against CDK2/CycE, 0.39 µM; in assay [2] it was 0.9 µM.
With `CCS(=N)(=O)c1ccc(Nc2ncc(Br)c(N[C@H](COC)[C@@H](C)O)n2)cc1` (mixture of isomers) [Example 1.48, (RS)-S-{4-[(5-bromo-4-{[(1R,2R)-2-hydroxy-1-(methoxymethyl)-propyl]amino}pyrimidin-2-yl)amino]phenyl}-S-ethyl sulfoximide], the values for the IC50 in assay [1] (setting [5]), in assay [3] and in assay [4] were 0.27 µM, 0.3 µM and 0.4 µM, respectively.
Turning to `C[C@@H](Nc1nc(Nc2ccc(S(=N)(=O)CCO)cc2)ncc1Br)C(C)(C)O` (single isomer, unassigned) [Example 1.14], the IC50 against CDK1/CycB is 0.007 µM; in assay [1] (setting [5]), 0.069 µM; in assay [3], 0.1 µM; in assay [2] it was 0.09 µM.
In the case of `C[C@@H](O)[C@@H](C)Nc1nc(Nc2ccc(S(C)(=N)=O)cc2)ncc1Br` (single isomer, unassigned) [Example 1.2], the IC50 in assay [3] came to 0.03 µM; in assay [4], 0.04 µM; in the assay on MaTu-ADR, 0.04 µM.
